Test results reported in patent US20040053974A1, “Medicinal compositions containing diuretic and insulin resistance-improving agent” (priority 2000, published 2004).
Marks after values point to notes of the source that are not given here. Each block holds one compound with its values, some of them ahead of it.

Legend:
Format in all cases: in vivo, rat
female Wistar rats [1] = assay: Co-administration of furosemide with compound A: circulating serum volume, heart-weight, edema and hydrothorax (macroscopic observation)
Method: 5-[4-(6-Methoxy-1-methyl-1H-benzimidazol-2-ylmethoxy)benzyl]thiazolidine-2,4-dione hydrochloride (200 mg/kg) was repeatedly and orally administered by gavage for 3 or 7 successive days to female Wistar rats (7 weeks old, Charles River Japan, Inc.) and furosemide (120 mg/kg and 240 mg/kg) was dietarily administered during the period.

Zucker fatty rats = assay: Co-administration of furosemide or amiloride with compound A for 14 days: blood parameters, heart-weight, circulating serum volume; settings: for blood dilution (decreases in hematocrit value and the number of red blood cells) caused by compound A / increases in circulating serum volume caused by compound A / increases in heart-weight caused by compound A: orally 14 days, 1 ml/kg of furosemide 100 mg/ml or amiloride 10 mg/ml
Method: Zucker fatty rats (7 weeks old, SLC, Shizuoka, Japan) were grouped as 5 rats a group. Mean body weight, plasma glucose and glyceride levels, hematocrit value, and the number of red blood cells in each group were similar among the groups. The rats were allowed to take food pellets (F2, Funabashi Farm) and water ad libitum. In the control group, the rats were given only food pellets, while the rest of rats were administered 5-[4-(6-methoxy-1-methyl-1H-benzimidazol-2-ylmethoxy)benzyl]thiazolidine-2,4-dione hydrochloride (suspended in 0.5% solution of carboxymethylcellulose (CMC)) at a volume of 1 ml/kg orally by gavage. In the groups of rats administered the above compound with furosemide (100 mg/ml, suspended in 0.5% CMC solution) or amiloride (10 mg/ml, suspended in distilled water), these diuretics were orally administered by gavage for 14 successive days at a volume of 1 ml/kg. After the final administration, the rats were fasted overnight, and their blood was collected from the tail vein with a capillary treated with heparin and EDTA on the 15th day.
Plasma glucose level and blood cell parameters were determined using an automatic analyzer (plasma glucose: Glucoloader GX-T, A&T Corp., blood cell parameters: K-1000, Sysmex Corporation, Kobe, Japan). Triglyceride was detected by the absorbance method with a kit (Triglyceride-E Test Wako, Wako Pure Chemical Industries, Ltd.). Concentrations of insulin and leptin were detected with RIA kits (Rat Insulin RIA Kit, Linco Research Inc.). Furthermore, circulating serum volume was determined by the dilution method using Evans blue.

female Wistar rats [2] = assay: Heart-weight and circulating serum volume (Evans blue method) after repeated oral administration; settings: for Ratio against control Heart-Weight / Ratio against control Circulating Serum volume: 200 mg/kg orally by gavage, female Wistar rats
Method: After 5-[4-(6-methoxy-1-methyl-1H-benzimidazol-2-ylmethoxy)benzyl]thiazolidine-2,4-dione hydrochloride (200 mg/kg) was repeatedly and orally administered by gavage for 3 or 7 successive days to female Wistar rats (7 weeks old, Charles River Japan, Inc.), circulating serum volume was determined by Evans blue methods and heart-weight recorded.

[3] = Compound A 200 mg/kg orally, Furosemide 0, female Wistar rats
[4] = orally by gavage, 14 successive days, Zucker fatty rats, FIG. 2
[5] = 7 successive days, n = 12, p < 0.01
[6] = 200 mg/kg orally, after administration for both 3 and 7 days
[7] = Furosemide 120 mg/kg dietary, co-administered with Compound A 200 mg/kg orally, female Wistar rats
[8] = Furosemide 240 mg/kg dietary, co-administered with Compound A 200 mg/kg orally, female Wistar rats
[9] = furosemide 120 and 240 mg/kg dietary co-administered with compound A 200 mg/kg
[10] = furosemide 120 and 240 mg/kg dietary co-administered with compound A 200 mg/kg, FIG. 1
[11] = co-administered with compound A, Zucker fatty rats

mean weight of thymus (female Wistar rats [1]; [3]): 521.4 mg | number of circulating red blood cells (female Wistar rats [1]; compound A 200 mg/kg orally, female Wistar rats): Decreases | heart-weight (Zucker fatty rats; [4]): increases | hematocrit value (dilution of the blood) (Zucker fatty rats; [4]): decreases | number of red blood cells (dilution of the blood) (Zucker fatty rats; [4]): decreases | Ratio against control Heart-Weight (female Wistar rats [2]; 3 successive days, n = 5-6): 1.03^a) | Ratio against control Circulating Serum volume (female Wistar rats [2]; 3 successive days, n = 5-6, p < 0.05): 1.18^a)* | Ratio against control Circulating Serum volume (female Wistar rats [2]; [5]): 1.30^b)** | Ratio against control Heart-Weight (female Wistar rats [2]; [5]): 1.22^b)** | Circulating serum volume (female Wistar rats [2]; [6]): increased | heart-weight (female Wistar rats [2]; [6]): increased
SMILES: COc1ccc2nc(COc3ccc(CC4SC(=O)NC4=O)cc3)n(C)c2c1.Cl (stereo not shown) [compound A, 5-[4-(6-methoxy-1-methyl-1H-benzimidazol-2-ylmethoxy)benzyl]thiazolidine-2,4-dione hydrochloride]
Macroscopic Observation, Edema: Subcutaneous tissue (incidence) (female Wistar rats [1]; [3]): 1/12 | Macroscopic Observation, Edema: brown adipose tissue (incidence) (female Wistar rats [1]; [3]): 12/12 | Macroscopic Observation, Edema: interstitial tissue of thymus (incidence) (female Wistar rats [1]; [3]): 1/12 | Macroscopic Observation, Hydrothorax (incidence) (female Wistar rats [1]; [3]): 6/12 | blood glucose levels (Zucker fatty rats; orally by gavage, 14 successive days, Zucker fatty rats): decreasing | HOMA-R, an indicator of insulin resistance (Zucker fatty rats; [4]): remarkably decreased | triglyceride levels (Zucker fatty rats; [4]): remarkably decreased

mean weight of thymus (female Wistar rats [1]; [7]): 450.6 mg | mean weight of thymus (female Wistar rats [1]; [8]): 375.9 mg
SMILES: NS(=O)(=O)c1cc(C(=O)O)c(NCc2ccco2)cc1Cl [Furosemide, furosemide]
Macroscopic Observation, Edema: Subcutaneous tissue (incidence) (female Wistar rats [1]; [7]): 0/12 | Macroscopic Observation, Edema: brown adipose tissue (incidence) (female Wistar rats [1]; [7]): 12/12 | Macroscopic Observation, Edema: interstitial tissue of thymus (incidence) (female Wistar rats [1]; [7]): 0/12 | Macroscopic Observation, Hydrothorax (incidence) (female Wistar rats [1]; [7]): 2/12 | Macroscopic Observation, Edema: Subcutaneous tissue (incidence) (female Wistar rats [1]; [8]): 0/12 | Macroscopic Observation, Edema: brown adipose tissue (incidence) (female Wistar rats [1]; [8]): 10/12 | Macroscopic Observation, Edema: interstitial tissue of thymus (incidence) (female Wistar rats [1]; [8]): 0/12 | Macroscopic Observation, Hydrothorax (incidence) (female Wistar rats [1]; [8]): 0/12 | Decreases in the number of circulating red blood cells produced by compound A (female Wistar rats [1]; [9]): prevented | edema and hydrothorax associated with administration of compound A (female Wistar rats [1]; [9]): suppressed | increases in circulating serum volume elicited by compound A (female Wistar rats [1]; [10]): suppressed | increases in heart-weight elicited by compound A (female Wistar rats [1]; [10]): suppressed | blood dilution (decreases in hematocrit value and the number of red blood cells) caused by compound A (Zucker fatty rats; [11]): suppressed | increases in circulating serum volume caused by compound A (Zucker fatty rats; [11]): suppressed | increases in heart-weight caused by compound A (Zucker fatty rats; [11]): suppressed

SMILES: N=C(N)NC(=O)c1nc(Cl)c(N)nc1N [amiloride]
ameliorating effects compared with furosemide (Zucker fatty rats; amiloride at 1/10 the dose of furosemide, co-administered with compound A, Zucker fatty rats): at least as potent as those of furosemide | blood dilution (decreases in hematocrit value and the number of red blood cells) caused by compound A (Zucker fatty rats; [11]): suppressed | increases in circulating serum volume caused by compound A (Zucker fatty rats; [11]): suppressed | increases in heart-weight caused by compound A (Zucker fatty rats; [11]): suppressed | suppression of side effects caused by insulin sensitizers, relative to diuretic action (Zucker fatty rats; rats co-treated with amiloride and compound A): more potent than those predicted from its diuretic action
